Test [1] addresses DNA-PK(h) (Homo sapiens, UniProt P78527). As to the kind of experiment: Evaluation of inhibitory activity against DNA-PK (HTRF kinase assay, GST-cMyc-p53 substrate). The format is biochemical. As to conditions: compound concentration 0.01 μM; read-out: EXP_VALUE(% Inhibition) DNA-PK(h) 0.01 μM. The procedure:
<Experimental Example 2> Evaluation of Inhibitory Activity Properties Against DNA-PK
The following experiments were performed to verify the inhibitory activity against DNA-PK with regard to each of the compounds of Examples 1 to 441 according to the present invention.
DNA-PK(h) was subjected to an isothermal treatment in an assay buffer comprising […] GST-cMyc-p53 and Mg/ATP (at a concentration as required). The reaction was initiated by the addition of a Mg/ATP mixture, and after incubation for 30 minutes at room temperature, a stop solution comprising EDTA was added to stop the reaction. A detection buffer comprising d2-labelled anti-GST monoclonal antibody and Europium-labelled anti-phospho Ser15 antibody for phosphorylated p53 was added. A plate was read in a time-resolved fluorescence mode and a homogeneous time-resolved fluorescence (HTRF) signal was determined according to HTRF=10000×(Em 665 nm/Em 620 nm).
(In general: TR-FRET usually uses a lanthanide donor and a delayed reading to cut background.)

Test [2] addresses PI3K-δ (PI3K(p1108/p857) (h)) (Homo sapiens, UniProt O00329). As to the kind of experiment: Evaluation of inhibitory activity against PI3K-δ (HTRF kinase assay). The format is biochemical. As to conditions: compound concentration 0.01 μM; read-out: EXP_VALUE(% Inhibition) PI3K-δ 0.01 μM. The procedure:
<Experimental Example 1> Evaluation of Inhibitory Activity Properties Against PI3K-δ
The following experiments were performed to verify the inhibitory activity against PI3K-δ with regard to each of the compounds of Examples 1 to 441 according to the present invention.
PI3K(p1108/p857) (h) was incubated in assay buffer comprising 10 μM phosphatidylinositol-4,5-bisphosphate and Mg/ATP (at a concentration as required). The reaction was initiated by the addition of a Mg/ATP mixture, and after incubation for 30 minutes at room temperature, a stop solution comprising EDTA and phosphatidylinositol-3,4,5-triphosphate was added to stop the reaction and carry out biotinylation.
A detection buffer comprising Eu (europium)-labelled anti-GST monoclonal antibody, GST-tagged GRP1 PH domain and streptavidin-allophycocyanin was added. A plate was read in a time-resolved fluorescence mode and a homogeneous time-resolved fluorescence (HTRF) signal was determined according to HTRF=10000×(Em 665 nm/Em 620 nm).

Sequence of PI3K-δ (PI3K(p1108/p857) (h)) (O00329 whole entry): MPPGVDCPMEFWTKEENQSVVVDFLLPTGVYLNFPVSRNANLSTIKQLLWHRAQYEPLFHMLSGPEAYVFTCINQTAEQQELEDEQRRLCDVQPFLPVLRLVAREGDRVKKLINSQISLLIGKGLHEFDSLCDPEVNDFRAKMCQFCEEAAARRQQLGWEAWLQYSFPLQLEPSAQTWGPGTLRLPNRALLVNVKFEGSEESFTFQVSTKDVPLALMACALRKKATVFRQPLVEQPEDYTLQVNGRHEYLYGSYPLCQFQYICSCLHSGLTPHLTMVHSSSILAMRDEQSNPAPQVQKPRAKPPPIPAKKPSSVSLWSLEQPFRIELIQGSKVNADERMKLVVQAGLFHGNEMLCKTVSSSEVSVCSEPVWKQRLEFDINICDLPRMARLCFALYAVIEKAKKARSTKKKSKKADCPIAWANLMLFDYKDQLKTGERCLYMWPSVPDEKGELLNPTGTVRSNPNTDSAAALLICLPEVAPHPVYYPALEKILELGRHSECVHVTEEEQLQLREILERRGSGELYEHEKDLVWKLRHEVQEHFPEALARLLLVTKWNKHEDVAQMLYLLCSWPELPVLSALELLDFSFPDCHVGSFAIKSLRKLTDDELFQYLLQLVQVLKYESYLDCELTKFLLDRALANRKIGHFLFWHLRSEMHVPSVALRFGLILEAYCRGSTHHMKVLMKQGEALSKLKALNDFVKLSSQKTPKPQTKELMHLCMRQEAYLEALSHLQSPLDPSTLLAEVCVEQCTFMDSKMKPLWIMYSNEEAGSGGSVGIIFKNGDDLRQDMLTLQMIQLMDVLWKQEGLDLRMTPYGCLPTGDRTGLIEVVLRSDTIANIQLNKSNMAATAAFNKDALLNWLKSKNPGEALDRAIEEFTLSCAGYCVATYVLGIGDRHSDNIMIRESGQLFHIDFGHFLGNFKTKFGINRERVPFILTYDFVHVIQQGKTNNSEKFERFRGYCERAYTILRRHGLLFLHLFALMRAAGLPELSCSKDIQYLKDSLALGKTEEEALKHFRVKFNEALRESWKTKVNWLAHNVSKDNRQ
Sequence of PI3K-δ (PI3K(p1108/p857) (h)) (P27986 whole entry partner): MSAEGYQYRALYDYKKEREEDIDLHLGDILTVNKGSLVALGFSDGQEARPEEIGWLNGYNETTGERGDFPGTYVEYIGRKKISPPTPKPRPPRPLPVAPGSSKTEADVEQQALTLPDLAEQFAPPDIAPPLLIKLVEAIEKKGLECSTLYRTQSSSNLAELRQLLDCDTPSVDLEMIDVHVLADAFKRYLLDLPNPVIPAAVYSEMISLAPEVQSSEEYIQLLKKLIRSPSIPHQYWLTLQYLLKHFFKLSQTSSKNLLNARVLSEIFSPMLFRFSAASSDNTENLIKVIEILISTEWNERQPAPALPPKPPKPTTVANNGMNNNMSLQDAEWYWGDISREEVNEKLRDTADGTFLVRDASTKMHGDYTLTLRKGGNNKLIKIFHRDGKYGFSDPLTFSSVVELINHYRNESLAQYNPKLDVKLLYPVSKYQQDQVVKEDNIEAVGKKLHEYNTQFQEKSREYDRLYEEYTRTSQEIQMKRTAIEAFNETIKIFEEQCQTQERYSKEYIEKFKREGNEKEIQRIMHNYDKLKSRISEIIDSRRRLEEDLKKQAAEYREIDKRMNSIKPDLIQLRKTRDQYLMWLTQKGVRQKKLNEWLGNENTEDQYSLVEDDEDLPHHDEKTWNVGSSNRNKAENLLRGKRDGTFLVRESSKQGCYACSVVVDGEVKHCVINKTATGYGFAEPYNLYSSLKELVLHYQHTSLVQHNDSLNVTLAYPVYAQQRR

With `C[C@H](Nc1ncnc2[nH]ccc(=O)c12)c1c(Cl)c2cccc(-c3ccc(C#N)cn3)c2c(=O)n1-c1ccccc1` [Example 31, (S)-6-(4-chloro-1-oxo-3-(1-((5-oxo-5,8-dihydropyrido[2,3-d]pyrimidin-4-yl)amino)ethyl)-2-phenyl-1,2-dihydroisoquinolin-8-yl) nicotinonitrile], the inhibition at 0.01 µM in test [1] came to 2%; in test [2] it was 0%.
Turning to `C[C@H](Nc1ncnc2[nH]ccc(=O)c12)c1c(Cl)c2cccc(-c3ccc4ncncc4c3)c2c(=O)n1-c1ccccc1` [Example 32, (S)-4-((1-(4-chloro-1-oxo-2-phenyl-8-(quinazolin-6-yl)-1,2-dihydroisoquinolin-3-yl)ethyl)amino)pyrido[2,3-d]pyrimidin-5(8H)-one], the inhibition at 0.01 µM in test [1] came out at 75%; in test [2], 96%.
On to `C[C@H](Nc1ncnc2[nH]ccc(=O)c12)c1c(Cl)c2cccc(-c3ccc(-c4ccon4)cc3)c2c(=O)n1-c1ccccc1` [Example 33, (S)-4-((1-(4-chloro-8-(4-(isoxazol-3-yl)phenyl)-1-oxo-2-phenyl-1,2-dihydroisoquinolin-3-yl)ethyl)amino)pyrido[2,3-d]pyrimidin-5(8H)-one], for which the figures for the inhibition at 0.01 µM in test [1] and in test [2] were 48% and 92%, respectively.
Turning to `C[C@H](Nc1ncnc2[nH]ccc(=O)c12)c1c(Cl)c2cccc(-c3ccc(C(C)(C)C)nc3)c2c(=O)n1-c1ccccc1` [Example 34, (S)-4-((1-(8-(6-(tert-butyl)pyridin-3-yl)-4-chloro-1-oxo-2-phenyl-1,2-dihydroisoquinolin-3-yl)ethyl)amino)pyrido[2,3-d]pyrimidin-5(8H)-one], the inhibition at 0.01 µM in test [1] turned out to be 56%; in test [2], 74%.
On to `C[C@H](Nc1ncnc2[nH]ccc(=O)c12)c1c(Cl)c2cccc(-c3ncccn3)c2c(=O)n1-c1ccccc1` [Example 35, (S)-4-((1-(4-chloro-1-oxo-2-phenyl-8-(pyrimidin-2-yl)-1,2-dihydroisoquinolin-3-yl)ethyl)amino)pyrido[2,3-d]pyrimidin-5(8H)-one], for which the inhibition at 0.01 µM was found to be 7% in test [1] and 21% in test [2].
In the same order, the values of `C[C@H](Nc1ncnc2[nH]ccc(=O)c12)c1c(Cl)c2cccc(-c3cc(O)c(O)c(F)c3)c2c(=O)n1-c1ccccc1` [Example 36, (S)-4-((1-(4-chloro-8-(3-fluoro-4,5-dihydroxyphenyl)-1-oxo-2-phenyl-1,2-dihydroisoquinolin-3-yl)ethyl)amino)pyrido[2,3-d]pyrimidin-5(8H)-one] are 34% and 74%.
In the case of `C[C@H](Nc1ncnc2[nH]ccc(=O)c12)c1c(Cl)c2cccc(-c3ccc4nncn4c3)c2c(=O)n1-c1ccccc1` [Example 37, (S)-4-((1-(8-([1,2,4]triazolo[4,3-a]pyridin-6-yl)-4-chloro-1-oxo-2-phenyl-1,2-dihydroisoquinolin-3-yl)ethyl)amino)pyrido[2,3-d]pyrimidin-5(8H)-one], the inhibition at 0.01 µM in test [1] was found to be 60%; in test [2], 89%.
As for `C[C@H](Nc1ncnc2[nH]ccc(=O)c12)c1c(Cl)c2ccccc2c(=O)n1-c1ccccc1` [Example 38, (S)-4-((1-(4-chloro-1-oxo-2-phenyl-1,2-dihydroisoquinolin-3-yl)ethyl)amino)pyrido[2,3-d]pyrimidin-5(8H)-one], the figures for the inhibition at 0.01 µM in test [1] and in test [2] were 46% and 71%, respectively.
On the same counts, the results for `C[C@H](Nc1ncnc2[nH]ccc(=O)c12)c1c(Cl)c2cccc(-c3cnc(CC#N)nc3)c2c(=O)n1-c1ccccc1` [Example 39, (S)-2-(5-(4-chloro-1-oxo-3-(1-((5-oxo-5,8-dihydropyrido[2,3-d]pyrimidin-4-yl)amino)ethyl)-2-phenyl-1,2-dihydroisoquinolin-8-yl)pyrimidin-2-yl)acetonitrile] are 57% and 47%.
`C[C@H](Nc1ncnc2[nH]ccc(=O)c12)c1c(Cl)c2cccc(-c3cnc4nncn4c3)c2c(=O)n1-c1ccccc1` [Example 40, (S)-4-((1-(8-([1,2,4]triazolo[4,3-a]pyrimidin-6-yl)-4-chloro-1-oxo-2-phenyl-1,2-dihydroisoquinolin-3-yl)ethyl)amino)pyrido[2,3-d]pyrimidin-5(8H)-one]: the inhibition at 0.01 µM worked out at 61% in test [1] and 67% in test [2].
Turning to `COc1ccc(-c2cccc3c(Cl)c([C@H](C)Nc4ncnc5[nH]ccc(=O)c45)n(-c4ccccc4)c(=O)c23)nc1` [Example 41, (S)-4-((1-(4-chloro-8-(5-methoxypyridin-2-yl)-1-oxo-2-phenyl-1,2-dihydroisoquinolin-3-yl)ethyl)amino)pyrido[2,3-d]pyrimidin-5(8H)-one], the inhibition at 0.01 µM in test [1] was determined as 79%; in test [2], 89%.
Take `C[C@H](Nc1ncnc2[nH]ccc(=O)c12)c1c(Cl)c2cccc(-c3ccc4ncnn4c3)c2c(=O)n1-c1ccccc1` [Example 42, (S)-4-((1-(8-([1,2,4]triazolo[1,5-a]pyridin-6-yl)-4-chloro-1-oxo-2-phenyl-1,2-dihydroisoquinolin-3-yl)ethyl)amino)pyrido[2,3-d]pyrimidin-5(8H)-one]: the inhibition at 0.01 µM in test [1] turned out to be 76%; in test [2], 89%.
On the same counts, the results for `COc1cnc(-n2ccc(=O)c3c(N[C@@H](C)c4c(Cl)c5ccccc5c(=O)n4-c4ccccc4)ncnc32)nc1` [Example 43, (S)-4-((1-(4-chloro-1-oxo-2-phenyl-1,2-dihydroisoquinolin-3-yl)ethyl)amino)-8-(5-methoxypyrimidin-2-yl)pyrido[2,3-d]pyrimidin-5(8H)-one] are 3% and 9%.
Turning to `C[C@H](Nc1ncnc2[nH]ccc(=O)c12)c1c(Cl)c2cccc(-c3cnc(C#N)nc3)c2c(=O)n1-c1ccccc1` [Example 44, (S)-5-(4-chloro-1-oxo-3-(1-((5-oxo-5,8-dihydropyrido[2,3-d]pyrimidin-4-yl)amino)ethyl)-2-phenyl-1,2-dihydroisoquinolin-8-yl)pyrimidine-2-carbonitrile], the inhibition at 0.01 µM came out at 43% in test [1] and 79% in test [2].
`COc1cc(-c2cccc3c(Cl)c([C@H](C)Nc4ncnc5[nH]ccc(=O)c45)n(-c4ccccc4)c(=O)c23)ncn1` [Example 45, (S)-4-((1-(4-chloro-8-(6-methoxypyrimidin-4-yl)-1-oxo-2-phenyl-1,2-dihydroisoquinolin-3-yl)ethyl)amino)pyrido[2,3-d]pyrimidin-5(8H)-one]: the inhibition at 0.01 µM in test [1] was 2%; in test [2], 10%.
Turning to `C[C@H](Nc1ncnc2[nH]ccc(=O)c12)c1c(Cl)c2cccc(-c3ccc(C4CC4)nc3)c2c(=O)n1-c1ccccc1` [Example 46, (S)-4-((1-(4-chloro-8-(6-cyclopropylpyridin-3-yl)-1-oxo-2-phenyl-1,2-dihydroisoquinolin-3-yl)ethyl)amino)pyrido[2,3-d]pyrimidin-5(8H)-one], the inhibition at 0.01 µM came out at 27% in test [1] and 42% in test [2].
On the same counts, the results for `C[C@H](Nc1ncnc2[nH]ccc(=O)c12)c1c(Cl)c2cccc(-c3ccc(C(=O)O)nc3)c2c(=O)n1-c1ccccc1` [Example 47, (S)-5-(4-chloro-1-oxo-3-(1-((5-oxo-5,8-dihydropyrido[2,3-d]pyrimidin-4-yl)amino)ethyl)-2-phenyl-1,2-dihydroisoquinolin-8-yl)picolinic acid] are 48% and 86%.
`C[C@H](Nc1ncnc2[nH]ccc(=O)c12)c1c(Cl)c2cccc(-c3cnc4ccccc4n3)c2c(=O)n1-c1ccccc1` [Example 48, (S)-4-((1-(4-chloro-1-oxo-2-phenyl-8-(quinoxalin-2-yl)-1,2-dihydroisoquinolin-3-yl)ethyl)amino)pyrido[2,3-d]pyrimidin-5(8H)-one]: the inhibition at 0.01 µM in test [1] is -5%; in test [2] it was 7%.
Regarding `COc1cc(-c2cccc3c(Cl)c([C@H](C)Nc4ncnc5[nH]ccc(=O)c45)n(-c4ccccc4)c(=O)c23)nc(OC)n1` [Example 49, (S)-4-((1-(4-chloro-8-(2,6-dimethoxypyrimidin-4-yl)-1-oxo-2-phenyl-1,2-dihydroisoquinolin-3-yl)ethyl)amino)pyrido[2,3-d]pyrimidin-5(8H)-one], the values for the inhibition at 0.01 µM in test [1] and in test [2] were -3% and 23%, respectively.
Take `C[C@H](Nc1ncnc2[nH]ccc(=O)c12)c1c(Cl)c2cccc(-c3cc(O)ncn3)c2c(=O)n1-c1ccccc1` [Example 50, (S)-4-((1-(4-chloro-8-(6-hydroxypyrimidin-4-yl)-1-oxo-2-phenyl-1,2-dihydroisoquinolin-3-yl)ethyl)amino)pyrido[2,3-d]pyrimidin-5(8H)-one]: the figures for the inhibition at 0.01 µM in test [1] and in test [2] were 53% and 96%, respectively.

For orientation: inhibition means the drop in the measured response relative to a control, in per cent.

The values above are taken from patent publication US20230072683A1, “PYRIDO-PYRIMIDIN DERIVATIVES AND PHARMACEUTICAL COMPOSITION, FOR USE IN PREVENTING OR TREATING PI3 KINASE RELATED DISEASES, COMPRISING SAME AS ACTIVE INGREDIENT” (BORYUNG PHARMACEUTICAL CO., LTD, priority 2019, published 2023).
